Assay results published in US20060178307A1, “Modulation of NMDA receptor currents via orexin receptor and/or CRF receptor” (priority 2005, published 2006).
Entries after “also recorded” stand apart in the source; their conditions may differ. Where no end group is shown, it is not given here.

Experiments:
cocaine reinforcement = experiment: Operant cocaine self-administration, progressive ratio schedule; type: in vivo, rats; details: 10 mg/kg i.p. on 4th day of progressive ratio, n=12
Experimental: Rats were cannulated with an intra-venous cannula to their jugular vein. After one week to 10 days of recovery, the animals were trained to lever press for cocaine (0.5 mg/infusion, 2 second infusion) in Coulburn self-administration boxes. A tone and light above the active lever signalled during a press for cocaine and then a 20 second timeout followed the active lever press.
(§1) After 3-4 weeks of self-administration of cocaine (0.5 mg/infusion) ramping from fixed ratio of 1 lever press (FR1) to receive a reward to a stable fixed ratio of 5 lever presses to receive a reward (FR5) schedule, animals lever pressed for cocaine on a progressive ratio schedule for 4 days. On the second and third day, each animal received a vehicle injection (i.p.), and on the fourth day the animals received an injection (i.p.) of the OXR1 antagonist: SB334867, 10 mg/kg. As a control, orexin modulation of food self-administration was examined under the same paradigm. For food self-administration, animals were trained to an FR5 schedule for food pellets.

reinforcement for food = experiment: Operant food self-administration, progressive ratio schedule; type: in vivo, rats
Experimental: as §1
This effect of the OXR1 antagonist was not observed with respect to reinforcement for food. Rats were trained to lever press for food on an […] schedule, and subsequently a progressive ratio schedule. Rats were given vehicle on the 2nd and 3rd day of progressive ratio testing and then SB 334867 (10 mg/kg, i.p.) on the 4th day.

[1] = tested on: AMPAR/NMDAR ratio of EPSCs in VTA dopamine cells; experiment: AMPAR/NMDAR ratio after 5-min bath application to VTA slices; type: cell-based, rat; details: orexin A 100 nM 5 min, n=8
Experimental: The next study investigated whether orexin signaling in the VTA is required for the long-term plasticity associated with the development of behavioral sensitization. Long-term synaptic plasticity at excitatory synapses on VTA neurons was examined 24 hr after a 5-day treatment of cocaine (15 mg/kg) or saline (0.9%), a time course shown to induce long-lasting locomotor sensitization to cocaine (Thomas et al., 2001), with or without the OXR1 antagonist, SB 334867 (10 mg/kg, FIG. 5). To assay for synaptic plasticity, the relative contributions of AMPARs and NMDARs to EPSCs recorded in VTA dopamine cells were compared. Consistent with the potentiation observed following acute and 7-day cocaine treatments (Borgland et al., 2004), 5-day treatment with cocaine potentiated the AMPAR/NMDAR ratio compared to saline controls (FIG. 5A, saline: 0.4±0.07, n=4; cocaine: 0.8±0.1, n=4, p<0.05). […]
To calculate the AMPAR/NMDAR ratio, an average of 12 EPSCs at +40 mV was computed before and after application of the NMDAR blocker, AP5 (50 μM) for 5 min. NMDAR responses were calculated by subtracting the average response in the presence of AP5 (AMPAR only) from that seen in its absence; the peak of the AMPAR EPSC was divided by the peak of the NMDAR EPSC to yield an AMPAR/NMDAR ratio.

AMPAR mEPSCs = experiment: AMPAR-mediated miniature EPSCs (mEPSCs) in VTA neurons; type: cell-based, rat
Experimental: Next, to investigate whether AMPAR function and/or number was modified with orexin A treatment, AMPAR-mediated miniature EPSCs (mEPSCs) were examined (a standard method for determining the locus of synaptic change). Compared to untreated neurons, orexin A (100 nM) caused a significant increase in both amplitude (FIG. 6C,D,F) and frequency (FIG. 6C,E,G) 3-4 hours after application (24±1.6 pA; 2.4±0.5 Hz; n=7 vs control: 13±1.3 pA; 0.93±0.16 Hz; n=7; FIG. 6A), but not at 15 min (15±1.7 pA; 0.9±0.1 Hz; n=[…], FIG. 6B).
(§2) AMPAR mEPSCs were recorded in cells voltage-clamped at −70 mV in lidocaine (500 μM), APV (50 μM) and sucrose (100 mM). NMDAR mEPSCs were recorded at −40 mV in Mg2+-free external solution with lidocaine (500 μM), glycine (20 μM), and CNQX (10 μM). mEPSCs were collected using Clampex (Axon Instruments) and analyzed using Mini Analysis Program (Synaptosoft). Detection criteria were set at >10 pA, <1 ms rise-time, and <3 ms decay-time for AMPAR mEPSCs and >10 pA, <1 ms rise-time, and <10 ms decay-time for NMDAR mEPSCs. mEPSC traces were recorded while sampling every 10 μs, the images were filtered at 5 kHz. Averaged mEPSCs were constructed using Mini Analysis Program (Synaptosoft).

NMDAR mEPSCs = NMDAR mEPSCs in Mg2+-free buffer at −40 mV; type: cell-based, rat
Experimental: To examine changes in number or function of NMDARs after orexin treatment NMDAR mEPSCs were recorded in buffer without Mg^2+, and in the presence CNQX (10 μM), glycine (20 μM) and lidocaine (500 μM). Orexin A (100 nM) caused a significant increase in amplitude in NMDAR mEPSCs 15 min after application (17.1±0.7 pA, n=8, FIG. 7B,D,F) compared to untreated neurons (14.2±0.9 pA, n=8, FIG. 7A,D,F) or at 3-4 hours after orexin A application (13.9±0.5 pA, n=7, FIG. 7C,D,F).
as §2

[2] = 10 mg/kg i.p. on 4th day of progressive ratio, n=10
[3] = 3-4 hours after orexin A 100 nM, n=7
[4] = 3-4 hours after orexin A, APV 50 μM applied 3 min prior and during orexin, n=7
[5] = 15 min after orexin A 100 nM, n=6

Molecule | breakpoint (cocaine) (cocaine reinforcement) | natural log of active lever presses for cocaine (cocaine reinforcement) | raw active lever presses for cocaine (cocaine reinforcement) | total number of cocaine infusions (cocaine reinforcement) | breakpoint (food) (reinforcement for food; [2]) | total number of food pellets received (reinforcement for food; [2]) | reinforcement for food (reinforcement for food; 10 mg/kg i.p., hydrochloride) | AMPAR/NMDAR ratio ([1]; 15 min after treatment) | AMPAR/NMDAR ratio ([1]; after 3-4 hours) | AMPAR mEPSC amplitude (AMPAR mEPSCs; [3]) [pA] | AMPAR mEPSC frequency (AMPAR mEPSCs; [3]) [Hz] | AMPAR mEPSC amplitude (AMPAR mEPSCs; [4]) [pA] | AMPAR mEPSC frequency (AMPAR mEPSCs; [4]) [Hz] | AMPAR mEPSC amplitude (AMPAR mEPSCs; [5]) [pA] | AMPAR mEPSC frequency (AMPAR mEPSCs; [5]) [Hz] | frequency of NMDAR mEPSCs (NMDAR mEPSCs; 3-4 hours after orexin A) | NMDAR mEPSC amplitude (NMDAR mEPSCs; 3-4 hours after orexin A, n=7) [pA] | frequency of NMDAR mEPSCs (NMDAR mEPSCs; 15 min after orexin A) | NMDAR mEPSC amplitude (NMDAR mEPSCs; 15 min after orexin A 100 nM, n=8) [pA]
Cc1nc2ccc(NC(=O)Nc3ccnc4cccnc34)cc2o1.Cl [SB 334867, 1-(2-methylbenzoxazol-6-yl)-3-[1,5]naphthyridin-4-yl urea hydrochloride] | reduced | reduced | reduced | decreased | unaltered | not altered | not observed; also recorded: did not alter |  |  |  |  |  |  |  |  |  |  |  | 
orexin A: neuropeptide synthesized in neurons of the LH; orexin receptor agonist selective for the OXR1 receptor (QPLPDCCRQKTCSCRLYELLHGAGNHAAGILTL; ends and bridges not checked; cysteine pairing not given here; UniProt O43612 34-66, looked up) |  |  |  |  |  |  |  | 0.29±0.04 | 0.75±0.1 | 24±1.6 | 2.4±0.5 | 16±0.6 | 1.6±0.3 | 15±1.7 | 0.9±0.1 | 2.5±0.4 | 13.9±0.5 | 2.1±0.3 | 17.1±0.7
